Here are results for 1 compound from article PMC3311054 (2012).

SMILES strings stand for the structures. pKi: −log10 of the molar value.

One may read the pKi as the Ki on a negative log10 scale, so that one unit is a factor of ten.

Assay [1] concerns the target T1, Rhodobacter capsulatus xanthine oxidoreductase (RcXOR) (Rhodobacter capsulatus, UniProt O54051).
T1 sequence (O54051 1-777): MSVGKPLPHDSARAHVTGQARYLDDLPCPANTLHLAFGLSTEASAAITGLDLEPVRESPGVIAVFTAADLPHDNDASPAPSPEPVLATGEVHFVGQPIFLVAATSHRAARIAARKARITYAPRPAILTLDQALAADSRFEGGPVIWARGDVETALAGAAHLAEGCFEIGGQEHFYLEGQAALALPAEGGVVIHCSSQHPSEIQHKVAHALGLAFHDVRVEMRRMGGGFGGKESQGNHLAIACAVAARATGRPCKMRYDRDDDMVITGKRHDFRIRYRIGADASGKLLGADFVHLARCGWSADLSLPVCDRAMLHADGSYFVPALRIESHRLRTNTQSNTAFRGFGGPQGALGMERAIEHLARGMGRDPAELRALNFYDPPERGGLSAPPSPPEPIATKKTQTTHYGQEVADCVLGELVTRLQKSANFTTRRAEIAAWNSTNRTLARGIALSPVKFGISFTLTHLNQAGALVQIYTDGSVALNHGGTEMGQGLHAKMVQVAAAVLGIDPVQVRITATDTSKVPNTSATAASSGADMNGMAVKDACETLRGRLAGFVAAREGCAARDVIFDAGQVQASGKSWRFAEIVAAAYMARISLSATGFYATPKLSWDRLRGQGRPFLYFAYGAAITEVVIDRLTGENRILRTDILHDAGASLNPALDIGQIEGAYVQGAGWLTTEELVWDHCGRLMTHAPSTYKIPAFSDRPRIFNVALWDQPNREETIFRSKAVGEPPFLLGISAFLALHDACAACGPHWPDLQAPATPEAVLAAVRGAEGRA
T1 sequence (O54050 1-462 partner): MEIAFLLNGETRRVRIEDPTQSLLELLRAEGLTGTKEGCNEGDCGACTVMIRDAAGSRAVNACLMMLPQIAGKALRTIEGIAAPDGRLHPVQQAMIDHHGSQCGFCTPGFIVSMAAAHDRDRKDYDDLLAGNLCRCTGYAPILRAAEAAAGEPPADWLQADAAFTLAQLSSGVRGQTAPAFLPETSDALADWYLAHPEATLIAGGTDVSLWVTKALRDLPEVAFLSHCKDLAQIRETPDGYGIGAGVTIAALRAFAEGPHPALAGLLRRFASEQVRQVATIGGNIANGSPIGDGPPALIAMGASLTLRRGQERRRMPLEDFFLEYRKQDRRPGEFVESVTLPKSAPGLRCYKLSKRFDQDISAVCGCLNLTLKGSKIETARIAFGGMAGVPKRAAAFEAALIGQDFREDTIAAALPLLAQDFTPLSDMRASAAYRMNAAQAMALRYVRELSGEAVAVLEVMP
Description: steady-state kinetics, Lineweaver-Burk plots of xanthine-NAD+ activity. Type of assay: biochemical.

For assay [2], the target named is bovine milk xanthine oxidoreductase (bXOR) (Bos taurus, UniProt P80457). The assay can be described thus: steady-state kinetics, xanthine-NAD+ activity, uric acid absorbance at […] nm. Type of assay: biochemical.
Sequence of bovine milk xanthine oxidoreductase (bXOR) (P80457 2-1332): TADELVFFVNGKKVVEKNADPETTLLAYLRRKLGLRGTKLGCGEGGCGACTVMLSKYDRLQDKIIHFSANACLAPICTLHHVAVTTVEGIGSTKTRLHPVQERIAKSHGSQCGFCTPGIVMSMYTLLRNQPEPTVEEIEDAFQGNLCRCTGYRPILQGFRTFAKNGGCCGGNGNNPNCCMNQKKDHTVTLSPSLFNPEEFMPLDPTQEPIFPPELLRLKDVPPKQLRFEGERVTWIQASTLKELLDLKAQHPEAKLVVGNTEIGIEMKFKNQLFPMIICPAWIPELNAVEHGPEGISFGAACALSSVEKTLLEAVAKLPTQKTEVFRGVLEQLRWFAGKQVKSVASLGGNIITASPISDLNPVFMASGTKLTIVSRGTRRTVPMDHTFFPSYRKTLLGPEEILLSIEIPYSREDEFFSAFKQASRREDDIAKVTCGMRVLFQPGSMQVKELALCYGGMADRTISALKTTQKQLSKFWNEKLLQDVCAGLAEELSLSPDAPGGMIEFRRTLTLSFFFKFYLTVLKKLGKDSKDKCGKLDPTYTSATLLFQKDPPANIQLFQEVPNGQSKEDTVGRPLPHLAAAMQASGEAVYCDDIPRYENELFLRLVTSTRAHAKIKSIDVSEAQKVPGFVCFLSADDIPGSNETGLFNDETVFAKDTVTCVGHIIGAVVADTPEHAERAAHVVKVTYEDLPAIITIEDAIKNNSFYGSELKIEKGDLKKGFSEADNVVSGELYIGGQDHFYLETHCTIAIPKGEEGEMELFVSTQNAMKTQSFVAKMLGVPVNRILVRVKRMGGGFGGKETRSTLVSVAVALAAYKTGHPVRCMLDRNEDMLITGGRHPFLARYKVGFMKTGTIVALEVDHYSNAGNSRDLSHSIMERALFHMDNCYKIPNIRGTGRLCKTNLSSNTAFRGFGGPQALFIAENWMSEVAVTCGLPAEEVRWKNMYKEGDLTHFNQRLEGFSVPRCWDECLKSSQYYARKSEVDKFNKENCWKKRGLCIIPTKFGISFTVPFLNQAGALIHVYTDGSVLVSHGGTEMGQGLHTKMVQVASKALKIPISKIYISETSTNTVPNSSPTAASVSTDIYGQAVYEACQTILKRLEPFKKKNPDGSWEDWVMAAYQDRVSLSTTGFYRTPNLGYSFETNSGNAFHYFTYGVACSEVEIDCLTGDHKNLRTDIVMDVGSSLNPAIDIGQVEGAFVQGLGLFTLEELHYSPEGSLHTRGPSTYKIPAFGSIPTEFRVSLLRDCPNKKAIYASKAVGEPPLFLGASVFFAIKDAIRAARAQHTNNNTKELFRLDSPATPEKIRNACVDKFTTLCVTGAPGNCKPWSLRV

In assay [1], `Cc1nc(-c2ccc(OCC(C)C)c(C#N)c2)sc1C(=O)O` [febuxostat] gave a pKi of 4.76. Besides, the “steady-state kinetics, xanthine-NAD+ activity, uric acid absorbance at 295 nm” value in assay [2] is < 100 nM.
